From patent US11498896B2 (The Broad Institute, Inc., priority 2014, dated 2022)
pEC50, pIC50, pKi: −log10 of the molar value.

Key:
[1] = biological target: T1, human D2R/β-arrestin (Homo sapiens (Human), UniProt P14416); experiment: Gi/cAMP agonist assay (Lance Ultra cAMP, forskolin); format: cell-based; conditions: CHO-K1 cells expressing human D2R/β-arrestin; agonist mode, 2.5 μM forskolin
Description: Eu-cAMP tracer solution (10 μl, PerkinElmer, 360 μl of Tracer in 17.64 ml kit buffer) and ULight-anti-cAMP solution (10 μl, 120 μL antibody in 17.88 ml kit buffer) was then added to each well.

[2] = biological target: T1, human D2R/β-arrestin; experiment: cell-based; conditions: β-arrestin Antagonist
[3] = biological target: T1, human D2R/β-arrestin; experiment: cell-based; conditions: cAMP Antagonist
[4] = biological target: D2 receptor (Homo sapiens (Human), UniProt P14416); experiment: D2 radioligand binding assay
[5] = biological target: T1, human D2R/β-arrestin; experiment: β-arrestin agonist assay (PathHunter); format: cell-based; conditions: CHO-K1 cells expressing human D2R/β-arrestin; agonist mode
Description: The detection reagent (9.6 μL, Buffer:Emerald II:Galactor-Star in a 19:5:1 ratio, i.e., 14.06 mL:3.7 mL:0.74 mL=18.5 mL) was then added to the agonist plates.

[6] = CHO-K1 cells expressing human D2R/β-arrestin, antagonist mode, quinpirole 130 nM
[7] = CHO-K1 cells expressing human D2R/β-arrestin, antagonist mode, 2.5 μM forskolin and 2.7 nM quinpirole

Sequence of D2 receptor (P14416 whole entry): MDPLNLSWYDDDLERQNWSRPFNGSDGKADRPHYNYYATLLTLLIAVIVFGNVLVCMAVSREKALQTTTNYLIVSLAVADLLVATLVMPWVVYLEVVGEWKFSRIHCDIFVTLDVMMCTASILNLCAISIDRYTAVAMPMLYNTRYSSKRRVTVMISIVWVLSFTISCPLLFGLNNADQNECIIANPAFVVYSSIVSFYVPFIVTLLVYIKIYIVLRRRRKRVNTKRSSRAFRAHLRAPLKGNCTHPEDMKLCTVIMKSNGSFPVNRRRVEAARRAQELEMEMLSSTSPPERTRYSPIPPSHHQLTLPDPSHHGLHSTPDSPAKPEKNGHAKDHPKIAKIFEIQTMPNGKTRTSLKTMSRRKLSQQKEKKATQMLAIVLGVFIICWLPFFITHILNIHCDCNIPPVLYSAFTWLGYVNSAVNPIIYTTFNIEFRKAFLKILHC
T1 sequence (P14416 whole entry): as above

| pEC50 [1] | pIC50 [2, 6] | pIC50 [3, 7] | pKi [4] | pEC50 [5] | Structure (SMILES) | pIC50 [2] | pIC50 [3] |
| --- | --- | --- | --- | --- | --- | --- | --- |
| < 4.52 | > 7.00 | > 7.00 | > 7.00 | < 4.52 | FC(F)(F)c1ccccc1OCCN1CCC2(CCCN2c2ccc(Cl)cc2)CC1 [Compound 135, 1-(4-Chlorophenyl)-8-(2-(2-(trifluoromethyl)phenoxy)ethyl)-1,8-diazaspiro[4.5]decane] | – | – |
| > 7.00 | 6.00 to 7.00 | < 4.52 | 4.52 to 5.00 | 5.00 to 6.00 | CC1(O)CCN(CC2COc3ccccc3O2)CC1 (stereo not shown) [Compound 140, 1-((2,3-dihydrobenzo[b][1,4]dioxin-2-yl)methyl)-4-methylpiperidin-4-ol] | – | – |
| > 7.00 | 5.00 to 6.00 | < 4.52 | 5.00 to 6.00 | < 4.52 | CC1(Oc2ccc(Cl)cc2)CCN(CCOc2ccccc2)C1 (stereo not shown) [Compound 1, 3-(4-chlorophenoxy)-3-methyl-1-(2-phenoxyethyl)pyrrolidine] | – | – |
| < 4.52 | 6.00 to 7.00 | > 7.00 | 6.00 to 7.00 | < 4.52 | CC1(Oc2ccc(Cl)cc2)CCCN(CCOc2ccccc2)C1 (stereo not shown) [Example 96, 3-(4-chlorophenoxy)-3-methyl-1-(2-phenoxyethyl)piperidine] | – | – |
| < 4.52 | 5.00 to 6.00 | 6.00 to 7.00 | 6.00 to 7.00 | < 4.52 | Clc1ccc2c(c1)CC1(CCN(CCOc3ccccc3)C1)O2 (stereo not shown) [Compound 144, 5-chloro-1′-(2-phenoxyethyl)-3H-spiro[benzofuran-2,3′-pyrrolidine]] | – | – |
| > 7.00 | < 4.52 | < 4.52 | > 7.00 | > 7.00 | CC1(Oc2ccc(Cl)cc2)CCN(CCOc2ccccc2F)CC1 [Example 86, 4-(4-chlorophenoxy)-1-(2-(2-fluorophenoxy)ethyl)-4-methylpiperidine] | – | – |
| < 4.52 | 5.00 to 6.00 | 6.00 to 7.00 | 6.00 to 7.00 | < 4.52 | CC1(Oc2ccc(Cl)cc2)CCN(CCCCOc2ccccc2F)C1 (stereo not shown) [Compound 27, 3-(4-chlorophenoxy)-1-(4-(2-fluorophenoxy)butyl)-3-methylpyrrolidine] | – | – |
| > 7.00 | 6.00 to 7.00 | < 4.52 | 6.00 to 7.00 | < 4.52 | CC1(Oc2ccc(Cl)cc2)CCN(CCOc2cc(F)ccc2C(F)(F)F)CC1 [Compound 122, 4-(4-Chlorophenoxy)-1-(2-(5-fluoro-2-(trifluoromethyl)phenoxy)ethyl)-4-methylpiperidine] | – | – |
| > 7.00 | > 7.00 | < 4.52 | 6.00 to 7.00 | < 4.52 | CC1(Oc2ccccc2)CCN(CCOc2ccccc2C(F)(F)F)CC1 [Example 91, 4-methyl-4-phenoxy-1-(2-(2-(trifluoromethyl)phenoxy)ethyl)piperidine] | – | – |
| < 4.52 | 6.00 to 7.00 | > 7.00 | 6.00 to 7.00 | < 4.52 | CC1(Oc2ccc(Cl)cc2)CCCN(CCOc2ccc3scnc3c2)C1 (stereo not shown) [Example 99, 5-(2-(3-(4-chlorophenoxy)-3-methylpiperidin-1-yl)ethoxy)benzo[d]thiazole] | – | – |
| > 7.00 | > 7.00 | < 4.52 | 6.00 to 7.00 | < 4.52 | CC1(NC(=O)C2CC2)CCN(C[C@H]2COc3ccccc3O2)CC1 [Compound 209, (S)—N-(1-((2,3-dihydrobenzo[b][1,4]dioxin-2-yl)methyl)-4-methylpiperidin-4-yl)cyclopropanecarboxamide] | – | – |
| 6.00 to 7.00 | 4.52 to 5.00 | < 4.52 | 4.52 to 5.00 | < 4.52 | CC1(Oc2ccccn2)CCN(CCOc2ccc(C(F)(F)F)cc2)CC1 [Compound 164, 2-((4-methyl-1-(2-(4-(trifluoromethyl)phenoxy)ethyl)piperidin-4-yl)oxy)pyridine] | – | – |
| < 4.52 | > 7.00 | > 7.00 | > 7.00 | < 4.52 | Fc1ccccc1OCCN1CCC2(CC1)CCN2c1ccc(Cl)cc1 [Compound 137, 1-(4-chlorophenyl)-7-(2-(2-fluorophenoxy)ethyl)-1,7-diazaspiro[3.5]nonane] | – | – |
| > 7.00 | < 4.52 | < 4.52 | 6.00 to 7.00 | < 4.52 | CC1(Oc2ccccc2)CCN(CCOc2ccc(C(F)(F)F)cc2)CC1 [Example 68] | – | – |
| > 7.00 | 6.00 to 7.00 | < 4.52 | 6.00 to 7.00 | 6.00 to 7.00 | CC(=O)NC1(C)CCN(C[C@H]2COc3ccc(F)cc3O2)CC1 [Compound 210, (S)—N-(1-((7-fluoro-2,3-dihydrobenzo[b][1,4]dioxin-2-yl)methyl)-4-methylpiperidin-4-yl)acetamide] | – | – |
| > 7.00 | < 4.52 | < 4.52 | 5.00 to 6.00 | 4.52 to 5.00 | CC1(Oc2ccncc2)CCN(CCOc2ccccc2)C1 (stereo not shown) [Example 59, 4-((3-methyl-1-(2-phenoxyethyl)pyrrolidin-3-yl)oxy)pyridine] | – | – |
| < 4.52 | > 7.00 | > 7.00 | > 7.00 | < 4.52 | CC(=O)NC1(C)CCN(C[C@H]2COc3ccc(Br)cc3O2)CC1 [Compound 211, (S)—N-(1-((7-bromo-2,3-dihydrobenzo[b][1,4]dioxin-2-yl)methyl)-4-methylpiperidin-4-yl)acetamide] | – | – |
| 6.00 to 7.00 | 5.00 to 6.00 | 4.52 to 5.00 | 5.00 to 6.00 | < 4.52 | CC1(Oc2ccc(C(F)(F)F)cc2)CCN(CCOc2ccccc2)C1 (stereo not shown) [Example 54, 3-methyl-1-(2-phenoxyethyl)-3-(4-(trifluoromethyl)phenoxy)pyrrolidine] | – | – |
| > 7.00 | > 7.00 | < 4.52 | 6.00 to 7.00 | > 7.00 | CC1(C(=O)N2CCCC2)CCN(C[C@H]2COc3ccccc3O2)CC1 [Compound 206, (S)-(1-((2,3-dihydrobenzo[b][1,4]dioxin-2-yl)methyl)-4-methylpiperidin-4-yl)(pyrrolidin-1-yl)methanone] | – | – |
| 6.00 to 7.00 | 6.00 to 7.00 | 6.00 to 7.00 | 5.00 to 6.00 | < 4.52 | CNC(=O)C1(C)CCN(CC2COc3ccccc3O2)CC1 (single isomer, unassigned) [Compound 202b, 1-((2,3-dihydrobenzo[b][1,4]dioxin-2-yl)methyl)-N,4-dimethylpiperidine-4-carboxamide] | – | – |
| > 7.00 | > 7.00 | < 4.52 | 6.00 to 7.00 | 6.00 to 7.00 | CC(=O)NC1(C)CCN(C[C@H]2COc3ccccc3O2)CC1 [Compound 208, (S)—N-(1-((2,3-dihydrobenzo[b][1,4]dioxin-2-yl)methyl)-4-methylpiperidin-4-yl)acetamide] | – | – |
| > 7.00 | 6.00 to 7.00 | < 4.52 | 6.00 to 7.00 | 6.00 to 7.00 | CN(C)C(=O)C1(C)CCN(C[C@H]2COc3ccccc3O2)CC1 [Compound 205, (S)-1-((2,3-dihydrobenzo[b][1,4]dioxin-2-yl)methyl)-N,N,4-trimethylpiperidine-4-carboxamide] | – | – |
| < 4.52 | < 4.52 | < 4.52 | 4.52 to 5.00 | < 4.52 | CC1(Oc2ccc(Cl)cc2)CCN(CCn2ccccc2=O)C1 (stereo not shown) [Compound 7, 1-(2-(3-(4-chlorophenoxy)-3-methylpyrrolidin-1-yl)ethyl)pyridin-2(1H)-one] | – | – |
| > 7.00 | 5.00 to 6.00 | < 4.52 | – | 6.00 to 7.00 | CC1(Oc2ccc(Cl)cc2)CCN(CCOc2ccc3ncoc3c2)CC1 [Compound 127, 6-(2-(4-(4-chlorophenoxy)-4-methylpiperidin-1-yl)ethoxy)benzo[d] oxazole] | – | – |
| 6.00 to 7.00 | 4.52 to 5.00 | < 4.52 | – | < 4.52 | CC1(Oc2cccc(N)c2)CCN(CCOc2ccccc2)C1 (stereo not shown) [Example 41, 3-((3-methyl-1-(2-phenoxyethyl)pyrrolidin-3-yl)oxy)aniline] | – | – |
| 6.00 to 7.00 | < 4.52 | < 4.52 | – | 5.00 to 6.00 | CC1(Oc2ccc(Cl)cc2)CCN(CCOc2ccc3ccncc3c2)C1 (stereo not shown) [Compound 34, 7-(2-(3-(4-chlorophenoxy)-3-methylpyrrolidin-1-yl)ethoxy)isoquinoline] | – | – |

| Structure (SMILES) | pEC50 [1] | pIC50 [2, 6] | pIC50 [3, 7] | pKi [4] | pEC50 [5] | pIC50 [2] | pIC50 [3] |
| --- | --- | --- | --- | --- | --- | --- | --- |
| CC1(C(=O)c2ccccc2)CCN(CCOc2ccccc2C(F)(F)F)CC1 [Example 106, (4-Methyl-1-(2-(2-(trifluoromethyl)phenoxy)ethyl)piperidin-4-yl) (phenyl)methanone] | < 4.52 | 6.00 to 7.00 | > 7.00 | > 7.00 | < 4.52 | – | – |
| CN(c1ccccc1)C1(C)CCN(CCOc2ccccc2C(F)(F)F)CC1 [Example 112] | 6.00 to 7.00 | – | – | 6.00 to 7.00 | < 4.52 | 6.00 to 7.00 | < 4.52 |
| CC1(Oc2ccccc2)CC2CCC(C1)N2CCOc1ccccc1C(F)(F)F (stereo not shown) [Example 78, 3-Methyl-3-phenoxy-8-(2-(2-(trifluoromethyl)phenoxy)ethyl)-8-azabicyclo[3.2.1]octane] | 4.52 to 5.00 | – | – | 6.00 to 7.00 | < 4.52 | 6.00 to 7.00 | 5.00 to 6.00 |
